Assay results published in ChEMBL document CHEMBL3885861, “Open TG-GATES”.

Species: Rattus norvegicus
Assay: Open TG-GATES - Regimen: Single
Assay type: toxicity, organism-based, Sprague-Dawley
Parameters: regimen Single, gender Male, age 6 weeks
Settings: in vivo, po, 50 mg/kg, route gavage, dose level Middle; for APTT / Bas / Eos / Fbg / Hb / Ht / Lym / MCH / MCHC / MCV / Mono / Neu / PT / Plat / RBC / Ret / WBC: tissue Blood; for KIDNEY_L / KIDNEY_R / KIDNEY_TOTAL: tissue Kidney; for LIVER: tissue Liver; for A/G / ALP / ALT / AST / BUN / CRE / Ca / Cl / DBIL / GLC / IP / K / LDH / Na / PL / RALB / TBIL / TC / TG / TP / gamma-GTP: tissue Plasma

Nc1nc(N)c2nc(-c3ccccc3)c(N)nc2n1
TERMINAL_BW (3 h): 214.5 g
APTT (3 h): 16.6 s
Bas (3 h): 0%
Eos (3 h): 0.8%
Fbg (3 h): 295.2 mg/dL
Hb (3 h): 14.3 g/dL
Ht (3 h): 43.1%
Lym (3 h): 77%
MCH (3 h): 21.2 pg
MCHC (3 h): 33.2%
MCV (3 h): 64 fL
Mono (3 h): 3.4%
Neu (3 h): 18.4%
PT (3 h): 13.9 s
Plat (3 h): 121.1 x10_4/uL
RBC (3 h): 673.2 x10_4/ul
Ret (3 h): 7%
WBC (3 h): 86.9 x10_2/uL
KIDNEY_L (3 h): 1 g
KIDNEY_R (3 h): 1 g
KIDNEY_TOTAL (3 h): 1.9 g
LIVER (3 h): 9.5 g
A/G (3 h): 0.9
ALP (3 h): 1490.4 IU/L
ALT (3 h): 42.4 IU/L
AST (3 h): 73.2 IU/L
BUN (3 h): 12.2 mg/dL
CRE (3 h): 0.2 mg/dL
Ca (3 h): 11 mg/dL
Cl (3 h): 105.2 meq/L
DBIL (3 h): 0.006 mg/dL
GLC (3 h): 165 mg/dL
IP (3 h): 8.7 mg/dL
K (3 h): 4.7 meq/L
LDH (3 h): 59.4 IU/L
Na (3 h): 141.4 meq/L
PL (3 h): 160.8 mg/dL
RALB (3 h): 2.7 g/dL
TBIL (3 h): 0.062 mg/dL
TC (3 h): 90.6 mg/dL
TG (3 h): 56.2 mg/dL
TP (3 h): 5.7 g/dL
gamma-GTP (3 h): 1.4 IU/L
TERMINAL_BW (6 h): 207.3 g
APTT (6 h): 16.9 s
Bas (6 h): 0%
Eos (6 h): 1%
Fbg (6 h): 337 mg/dL
Hb (6 h): 14.3 g/dL
Ht (6 h): 43.5%
Lym (6 h): 69.8%
MCH (6 h): 20.9 pg
MCHC (6 h): 32.9%
MCV (6 h): 63.5 fL
Mono (6 h): 2.2%
Neu (6 h): 27%
PT (6 h): 14.1 s
Plat (6 h): 124.3 x10_4/uL
RBC (6 h): 685.4 x10_4/ul
Ret (6 h): 7.5%
WBC (6 h): 81.3 x10_2/uL
KIDNEY_L (6 h): 1 g
KIDNEY_R (6 h): 1 g
KIDNEY_TOTAL (6 h): 1.9 g
LIVER (6 h): 9 g
A/G (6 h): 1
ALP (6 h): 1195.2 IU/L
ALT (6 h): 35.2 IU/L
AST (6 h): 72.4 IU/L
BUN (6 h): 11.4 mg/dL
CRE (6 h): 0.2 mg/dL
Ca (6 h): 10.9 mg/dL
Cl (6 h): 106.8 meq/L
DBIL (6 h): 0.01 mg/dL
GLC (6 h): 167.6 mg/dL
IP (6 h): 9.1 mg/dL
K (6 h): 5 meq/L
LDH (6 h): 62.6 IU/L
Na (6 h): 142.4 meq/L
PL (6 h): 149.4 mg/dL
RALB (6 h): 2.8 g/dL
TBIL (6 h): 0.06 mg/dL
TC (6 h): 81.2 mg/dL
TG (6 h): 54 mg/dL
TP (6 h): 5.6 g/dL
gamma-GTP (6 h): 1 IU/L
TERMINAL_BW (9 h): 208.4 g
APTT (9 h): 18 s
Bas (9 h): 0%
Eos (9 h): 1%
Fbg (9 h): 310.4 mg/dL
Hb (9 h): 14.1 g/dL
Ht (9 h): 42.6%
Lym (9 h): 70.2%
MCH (9 h): 20.9 pg
MCHC (9 h): 33.1%
MCV (9 h): 63 fL
Mono (9 h): 2%
Neu (9 h): 26%
PT (9 h): 13.9 s
Plat (9 h): 116.9 x10_4/uL
RBC (9 h): 677 x10_4/ul
Ret (9 h): 7.4%
WBC (9 h): 88.1 x10_2/uL
KIDNEY_L (9 h): 1 g
KIDNEY_R (9 h): 1 g
KIDNEY_TOTAL (9 h): 2 g
LIVER (9 h): 8.5 g
A/G (9 h): 0.9
ALP (9 h): 1205.8 IU/L
ALT (9 h): 37 IU/L
AST (9 h): 72 IU/L
BUN (9 h): 11.4 mg/dL
CRE (9 h): 0.2 mg/dL
Ca (9 h): 10.8 mg/dL
Cl (9 h): 105.8 meq/L
DBIL (9 h): 0.008 mg/dL
GLC (9 h): 161.8 mg/dL
IP (9 h): 10.6 mg/dL
K (9 h): 4.6 meq/L
LDH (9 h): 48.2 IU/L
Na (9 h): 142.6 meq/L
PL (9 h): 133.6 mg/dL
RALB (9 h): 2.7 g/dL
TBIL (9 h): 0.056 mg/dL
TC (9 h): 74.2 mg/dL
TG (9 h): 37.4 mg/dL
TP (9 h): 5.6 g/dL
gamma-GTP (9 h): 1.2 IU/L
TERMINAL_BW (24 h): 227.4 g
APTT (24 h): 16.3 s
Bas (24 h): 0%
Eos (24 h): 1%
Fbg (24 h): 314.2 mg/dL
Hb (24 h): 14.1 g/dL
Ht (24 h): 42%
Lym (24 h): 79.8%
MCH (24 h): 22 pg
MCHC (24 h): 33.5%
MCV (24 h): 65.5 fL
Mono (24 h): 2.4%
Neu (24 h): 16.6%
PT (24 h): 13.9 s
Plat (24 h): 130 x10_4/uL
RBC (24 h): 642 x10_4/ul
Ret (24 h): 7.4%
WBC (24 h): 86.7 x10_2/uL
KIDNEY_L (24 h): 1 g
KIDNEY_R (24 h): 1 g
KIDNEY_TOTAL (24 h): 2 g
LIVER (24 h): 10.9 g
A/G (24 h): 0.9
ALP (24 h): 1815 IU/L
ALT (24 h): 47 IU/L
AST (24 h): 67.4 IU/L
BUN (24 h): 16.2 mg/dL
CRE (24 h): 0.2 mg/dL
Ca (24 h): 11.3 mg/dL
Cl (24 h): 105.8 meq/L
DBIL (24 h): 0.01 mg/dL
GLC (24 h): 179.8 mg/dL
IP (24 h): 8.2 mg/dL
K (24 h): 4 meq/L
LDH (24 h): 60.6 IU/L
Na (24 h): 144.2 meq/L
PL (24 h): 155.4 mg/dL
RALB (24 h): 2.7 g/dL
TBIL (24 h): 0.04 mg/dL
TC (24 h): 81 mg/dL
TG (24 h): 92 mg/dL
TP (24 h): 5.5 g/dL
gamma-GTP (24 h): 1 IU/L
